Results from ChEMBL document CHEMBL1134224, “Synthetic analogues of SB-219383. Novel C-glycosyl peptides as inhibitors of tyrosyl tRNA synthetase” (Bioorg Med Chem Lett, 2001).

Assays:
[1] = biological target: Tyrosine--tRNA ligase (Staphylococcus aureus); experiment: Inhibitory activity against Staphylococcus aureus tyrosyl tRNA synthetase (YRS) using aminoacylation assay
[2] = test system: Tyrosine--tRNA ligase (Staphylococcus aureus); experiment: Inhibitory activity (3 uM) against Staphylococcus aureus tyrosyl tRNA synthetase (YRS) using aminoacylation assay; No inhibition

IC50 [1] [nM] | IC50 [2] | Structure (SMILES)
1.2 | – | N[C@@H](Cc1ccc(O)cc1)C(=O)N[C@H](C(=O)O)[C@H]1[C@H](O)[C@@H](O)[C@@H](O)CN1O
– | Not Active | N[C@@H](Cc1ccc(O)cc1)C(=O)N[C@@H](C(=O)O)[C@H]1OC[C@@H](O)[C@@H](O)[C@@H]1O
– | Not Active | N[C@@H](Cc1ccc(O)cc1)C(=O)N[C@H](C(=O)O)[C@H]1OC[C@@H](O)[C@@H](O)[C@@H]1O
